For this assay, the target named is SMARCA2 (Homo sapiens, UniProt P51531). The assay is described as follows: MSD SMARCA2 degradation in NCI-H1299 cell line (24 h). It counts as cell-based. The following applies: for Dmax: NCI-H1299, NCI-H1299 cells; for DC50: NCI-H1299 cells, read-out: SMARCA2 MSD H1299 degradation 24 h: External Abs-DC50. Details: HC: NCI-H1299 cells treated with DMSO; host or cells: NCI-H1299. The method, then: Example 32. MSD SMARCA2 Degradation in […] Cell Line
Cell Culture: Cells were cultured in exponential growth phase.
Compound Preparation and Treatment: NCI-H1299 cells were seeded into the 96-well plate at 4.0*10^4 cells per 100 ul per well. Incubate the plate in the incubator overnight. The next day, compounds were diluted to designed stock concentration by TECAN, then perform a 3 fold, 9-point dilution via transferring 15 uL compound into 30 μL DMSO using Apricot. 200 nL diluted compound from compound source plate were transferred into the 96-intermediate plate as designated by using Echo550, followed with 100 ul culture medium to make the 2× compound solution. Cell plate were changed with 80 ul of fresh culture medium and 80 ul of 2× compound solution was added into the well to achieve the final designed concentration. Cell plate was then shaken at 720 rpm for 5 min and incubated for 24 hours in the incubator.
Sample Preparation: Media was aspirated from the cultures and the plate was washed with PBS twice. 60 ul of pre-chilled PIPA lysis buffer (Boston BioProducts BP-115D) with protease inhibitor were directly added into the well to lyze the cells for 20 minutes at 4° C. Cell lysates were collected.
MSD Procedure: The MSD plate was coated with 40 ul cell lysate and incubated at 4° C. overnight. The next day, the MSD coated bare plate was washed 3 times with 150 ul 1×TBST per well, blocked with 150 ul of blocking buffer per well, and shaken for 1 hour at RT, 600 rpm. Blocking buffer was 3% Blocker A in TBST. MSD plate was then washed 3 times with 150 ul 1×TBST per well and Primary Detection antibody (Rabbit anti-SMARCA2/BRM antibody, 100 μg/ml, ab223735) was added to a final [conc.]: 0.3 ug/ml, 25 ul/well and shaken for 1 hour at RT, 600 rpm. Antibody was prepared in Antibody Detection buffer (1% Blocker A in 1×TBST). The MSD plate was then washed 3 times with 150 ul 1×TBST per well. Secondary Detection antibody (SULFO-TAG anti-species antibody) was then added to a final [conc.]: 1 ug/ml, 25 ul/well, and shaken for 1 hour at RT, 600 rpm. Antibodies were prepared in Antibody Detection buffer (1% Blocker A in 1×TBST). MSD plate was washed 3 times with 150 ul 1×TBST per well and 2×MSD reading buffer was added, 150 ul per well, and diluted from 4× with water. MSD instrument was then read.
Data Analysis: The percentage of relative level of SMARCA2 level was calculated following equation below.
LC: A2780, SMARCA2 negative cells. HC: NCI-H1299 cells treated with DMSO.
The letter codes for the percentage of SMARCA2 degradation after 24 hours (Dmax %) include: A (>90% degradation), B (>70-90 degradation), C (50-70 degradation), and D (<50% degradation).

Here are results for 30 molecules from patent publication US12624044B2, “SMARCA degraders and uses thereof” (Kymera Therapeutics, Inc., priority 2019, dated 2026).

SMILES strings stand for the structures.

Chain of SMARCA2 (P51531 whole entry): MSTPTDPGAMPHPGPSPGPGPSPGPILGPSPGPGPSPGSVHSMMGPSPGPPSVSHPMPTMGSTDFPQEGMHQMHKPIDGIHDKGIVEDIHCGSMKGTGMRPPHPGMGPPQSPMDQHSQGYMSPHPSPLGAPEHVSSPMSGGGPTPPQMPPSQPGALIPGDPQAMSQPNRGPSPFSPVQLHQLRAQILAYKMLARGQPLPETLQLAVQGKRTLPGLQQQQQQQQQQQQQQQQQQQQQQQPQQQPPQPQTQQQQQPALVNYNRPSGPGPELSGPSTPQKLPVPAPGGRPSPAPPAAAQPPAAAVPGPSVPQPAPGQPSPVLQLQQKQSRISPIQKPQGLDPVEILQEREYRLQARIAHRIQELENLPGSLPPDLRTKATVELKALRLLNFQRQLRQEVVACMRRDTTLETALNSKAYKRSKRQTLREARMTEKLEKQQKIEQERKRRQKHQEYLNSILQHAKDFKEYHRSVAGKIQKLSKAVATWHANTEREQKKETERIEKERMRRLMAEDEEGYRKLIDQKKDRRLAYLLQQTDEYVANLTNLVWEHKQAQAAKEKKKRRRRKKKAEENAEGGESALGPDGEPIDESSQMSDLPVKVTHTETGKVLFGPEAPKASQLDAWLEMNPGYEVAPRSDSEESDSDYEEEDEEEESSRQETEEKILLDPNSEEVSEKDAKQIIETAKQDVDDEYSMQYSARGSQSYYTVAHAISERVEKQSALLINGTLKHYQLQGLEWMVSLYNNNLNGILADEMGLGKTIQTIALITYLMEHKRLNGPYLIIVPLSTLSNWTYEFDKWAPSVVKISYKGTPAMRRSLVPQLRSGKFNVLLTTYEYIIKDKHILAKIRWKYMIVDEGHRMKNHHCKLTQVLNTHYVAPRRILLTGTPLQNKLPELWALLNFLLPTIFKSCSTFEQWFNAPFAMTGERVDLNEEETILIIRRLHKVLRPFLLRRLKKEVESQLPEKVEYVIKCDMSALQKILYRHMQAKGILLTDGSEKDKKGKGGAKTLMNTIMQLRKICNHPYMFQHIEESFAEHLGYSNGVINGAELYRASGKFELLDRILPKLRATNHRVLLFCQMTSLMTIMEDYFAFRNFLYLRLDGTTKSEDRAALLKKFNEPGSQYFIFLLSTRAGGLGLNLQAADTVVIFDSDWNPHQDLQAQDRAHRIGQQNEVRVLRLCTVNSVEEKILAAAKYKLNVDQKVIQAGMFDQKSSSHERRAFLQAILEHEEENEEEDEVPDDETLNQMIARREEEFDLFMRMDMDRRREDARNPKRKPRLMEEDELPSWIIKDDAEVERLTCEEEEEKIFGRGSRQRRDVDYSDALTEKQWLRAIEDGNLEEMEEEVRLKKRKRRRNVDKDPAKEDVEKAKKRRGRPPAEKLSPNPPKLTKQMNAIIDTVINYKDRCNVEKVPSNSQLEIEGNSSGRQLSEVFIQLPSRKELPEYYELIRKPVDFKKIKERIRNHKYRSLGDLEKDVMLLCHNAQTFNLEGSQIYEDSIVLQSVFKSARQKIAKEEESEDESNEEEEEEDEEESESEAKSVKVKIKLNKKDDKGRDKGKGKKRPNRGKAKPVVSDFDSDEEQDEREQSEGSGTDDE

Take `Cn1c(=O)n(C2CCC(=O)NC2=O)c2ccc(C#CCCCCCc3cn(Cc4cccc(N5C[C@H]6C[C@@H]5CN6/C=C/C(=O)c5ccccc5O)n4)nn3)cc21` (stereo partly drawn) [I-62]: the Dmax (in general, the greatest extent of degradation seen) is < 50% and the DC50 (usually the concentration giving 50% degradation) is > 1000 nM.
In the same order, the values of `Cn1c(=O)n(C2CCC(=O)NC2=O)c2ccc(C#CCCCCCCc3cn(Cc4cccc(N5C[C@H]6C[C@@H]5CN6/C=C/C(=O)c5ccccc5O)n4)nn3)cc21` (stereo partly drawn) [I-63] are < 50% and > 1000 nM.
For `Cn1c(=O)n(C2CCC(=O)NC2=O)c2cccc(C#CCCc3cn(Cc4cccc(N5C[C@H]6C[C@@H]5CN6/C=C/C(=O)c5ccccc5O)n4)nn3)c21` (stereo partly drawn) [I-64], the greatest degradation seen (Dmax) was 70 to 90% and the DC50 was > 1000 nM.
On to `Cn1c(=O)n(C2CCC(=O)NC2=O)c2cccc(C#CCCCc3cn(Cc4cccc(N5C[C@H]6C[C@@H]5CN6/C=C/C(=O)c5ccccc5O)n4)nn3)c21` (stereo partly drawn) [I-65], for which the greatest degradation seen (Dmax) is < 50% and the 50% degradation concentration (DC50) was > 1000 nM.
For `Cn1c(=O)n(C2CCC(=O)NC2=O)c2cccc(C#CCCCCc3cn(Cc4cccc(N5C[C@H]6C[C@@H]5CN6/C=C/C(=O)c5ccccc5O)n4)nn3)c21` (stereo partly drawn) [I-66], in that order: < 50% and > 1000 nM.
In the same order, the values of `Cn1c(=O)n(C2CCC(=O)NC2=O)c2cccc(C#CCCCCCc3cn(Cc4cccc(N5C[C@H]6C[C@@H]5CN6/C=C/C(=O)c5ccccc5O)n4)nn3)c21` (stereo partly drawn) [I-67] are < 50% and > 1000 nM.
For `Cn1c(=O)n(C2CCC(=O)NC2=O)c2cccc(C#CCCCCCCc3cn(Cc4cccc(N5C[C@H]6C[C@@H]5CN6/C=C/C(=O)c5ccccc5O)n4)nn3)c21` (stereo partly drawn) [I-68], in that order: < 50% and > 1000 nM.
As for `O=C1CCC(N2C(=O)c3cccc(OCCc4cn(CCCc5cccc(N6C[C@H]7C[C@@H]6CN7/C=C/C(=O)c6ccccc6O)n5)nn4)c3C2=O)C(=O)N1` (stereo partly drawn) [I-69], the Dmax is < 50% and the DC50 is > 1000 nM.
In the same order, the values of `O=C1CCC(N2C(=O)c3cccc(OCCCc4cn(CCCc5cccc(N6C[C@H]7C[C@@H]6CN7/C=C/C(=O)c6ccccc6O)n5)nn4)c3C2=O)C(=O)N1` (stereo partly drawn) [I-70] are 70 to 90% and > 1000 nM.
With `O=C1CCC(N2C(=O)c3cccc(OCCCCc4cn(CCCc5cccc(N6C[C@H]7C[C@@H]6CN7/C=C/C(=O)c6ccccc6O)n5)nn4)c3C2=O)C(=O)N1` (stereo partly drawn) [I-71, 2-(2,6-dioxopiperidin-3-yl)-4-(4-(1-(3-(6-((1R,4R)-5-((E)-3-(2-hydroxyphenyl)-3-oxoprop-1-en-1-yl)-2,5-diazabicyclo[2.2.1]heptan-2-yl)pyridin-2-yl)propyl)-1H-1,2,3-triazol-4-yl)butoxy)isoindoline-1,3-dione], the Dmax is < 50% and the DC50 was > 1000 nM.
For `Cn1c(=O)n(C2CCC(=O)NC2=O)c2ccc(CNCCc3cn(Cc4cccc(N5C[C@H]6C[C@@H]5CN6/C=C/C(=O)c5ccccc5O)n4)nn3)cc21` (stereo partly drawn) [I-73], in that order: < 50% and > 1000 nM.
In the case of `Cn1c(=O)n(C2CCC(=O)NC2=O)c2ccc(CNCCCc3cn(Cc4cccc(N5C[C@H]6C[C@@H]5CN6/C=C/C(=O)c5ccccc5O)n4)nn3)cc21` (stereo partly drawn) [I-74], the greatest degradation seen (Dmax) was < 50% and the DC50 is > 1000 nM.
For `Cn1c(=O)n(C2CCC(=O)NC2=O)c2ccc(CNCCCCc3cn(Cc4cccc(N5C[C@H]6C[C@@H]5CN6/C=C/C(=O)c5ccccc5O)n4)nn3)cc21` (stereo partly drawn) [I-75], in that order: < 50% and > 1000 nM.
In the same order, the values of `Cn1c(=O)n(C2CCC(=O)NC2=O)c2ccc(CNCCCCCc3cn(Cc4cccc(N5C[C@H]6C[C@@H]5CN6/C=C/C(=O)c5ccccc5O)n4)nn3)cc21` (stereo partly drawn) [I-76] are < 50% and > 1000 nM.
In the same order, the values of `Cn1c(=O)n(C2CCC(=O)NC2=O)c2ccc(CNCCCCCCc3cn(Cc4cccc(N5C[C@H]6C[C@@H]5CN6/C=C/C(=O)c5ccccc5O)n4)nn3)cc21` (stereo partly drawn) [I-77] are < 50% and > 1000 nM.
With `Cn1c(=O)n(C2CCC(=O)NC2=O)c2cccc(CNCCc3cn(Cc4cccc(N5C[C@H]6C[C@@H]5CN6/C=C/C(=O)c5ccccc5O)n4)nn3)c21` (stereo partly drawn) [I-78, 3-[4-[[2-[1-[[6-[(1R,4R)-5-[(E)-3-(2-hydroxyphenyl)-3-oxo-prop-1-enyl]-2,5-diazabicyclo[2.2.1]heptan-2-yl]-2-pyridyl]methyl]triazol-4-yl]ethylamino]methyl]-3-methyl-2-oxo-benzimidazol-1-yl]piperidine-2,6-dione], the Dmax is < 50% and the DC50 was > 1000 nM.
In the same order, the values of `Cn1c(=O)n(C2CCC(=O)NC2=O)c2cccc(CNCCCc3cn(Cc4cccc(N5C[C@H]6C[C@@H]5CN6/C=C/C(=O)c5ccccc5O)n4)nn3)c21` (stereo partly drawn) [I-79] are < 50% and > 1000 nM.
In the same order, the values of `Cn1c(=O)n(C2CCC(=O)NC2=O)c2cccc(CNCCCCc3cn(Cc4cccc(N5C[C@H]6C[C@@H]5CN6/C=C/C(=O)c5ccccc5O)n4)nn3)c21` (stereo partly drawn) [I-80] are < 50% and > 1000 nM.
For `Cn1c(=O)n(C2CCC(=O)NC2=O)c2cccc(CNCCCCCc3cn(Cc4cccc(N5C[C@H]6C[C@@H]5CN6/C=C/C(=O)c5ccccc5O)n4)nn3)c21` (stereo partly drawn) [I-81], in that order: < 50% and > 1000 nM.
Take `Cn1c(=O)n(C2CCC(=O)NC2=O)c2cccc(CNCCCCCCc3cn(Cc4cccc(N5C[C@H]6C[C@@H]5CN6/C=C/C(=O)c5ccccc5O)n4)nn3)c21` (stereo partly drawn) [I-82]: the Dmax is < 50% and the DC50 was > 1000 nM.
Consider `Cn1c(=O)n(C2CCC(=O)NC2=O)c2ccc(CCCOc3ccc(CN4CCN(c5cc(-c6ccccc6O)nnc5N)CC4)cc3)cc21` (stereo not drawn) [I-83, 3-(5-(3-(4-((4-(3-amino-6-(2-hydroxyphenyl)pyridazin-4-yl)piperazin-1-yl)methyl)phenoxy)propyl)-3-methyl-2-oxo-2,3-dihydro-1H-benzo[d]imidazol-1-yl)piperidine-2,6-dione], for which the Dmax was < 50% and the 50% degradation concentration (DC50) was > 1000 nM.
For `Cn1c(=O)n(C2CCC(=O)NC2=O)c2ccc(CCCCOc3ccc(CN4CCN(c5cc(-c6ccccc6O)nnc5N)CC4)cc3)cc21` (stereo not drawn) [I-84], in that order: < 50% and > 1000 nM.
Take `Cn1c(=O)n(C2CCC(=O)NC2=O)c2ccc(CCCCCOc3ccc(CN4CCN(c5cc(-c6ccccc6O)nnc5N)CC4)cc3)cc21` (stereo not drawn) [I-85]: the Dmax is < 50% and the DC50 is > 1000 nM.
For `Cn1c(=O)n(C2CCC(=O)NC2=O)c2ccc(CCCCCCOc3ccc(CN4CCN(c5cc(-c6ccccc6O)nnc5N)CC4)cc3)cc21` (stereo not drawn) [I-86], in that order: < 50% and > 1000 nM.
For `Cn1c(=O)n(C2CCC(=O)NC2=O)c2ccc(CCCCCCCOc3ccc(CN4CCN(c5cc(-c6ccccc6O)nnc5N)CC4)cc3)cc21` (stereo not drawn) [I-87], in that order: < 50% and > 1000 nM.
In the same order, the values of `Cn1c(=O)n(C2CCC(=O)NC2=O)c2ccc(CCCCCCCc3cnc(N4C5CCC4CN(c4cc(-c6ccccc6O)nnc4N)C5)nc3)cc21` (stereo not drawn) [I-88] are > 90% and < 100 nM.
For the molecule `Cn1c(=O)n(C2CCC(=O)NC2=O)c2ccc(CCCCCCCCc3cnc(N4C5CCC4CN(c4cc(-c6ccccc6O)nnc4N)C5)nc3)cc21` (stereo not drawn) [I-89, 3-[5-[8-[2-[3-[3-amino-6-(2-hydroxyphenyl)pyridazin-4-yl]-3,8-diazabicyclo [3.2.1]octan-8-yl]pyrimidin-5-yl]octyl]-3-methyl-2-oxo-benzimidazol-1-yl]piperidine-2,6-dione], the Dmax is > 90% and the DC50 is < 100 nM.
In the same order, the values of `Cn1c(=O)n(C2CCC(=O)NC2=O)c2cccc(CCCOc3ccc(CN4CCN(c5cc(-c6ccccc6O)nnc5N)CC4)cc3)c21` (stereo not drawn) [I-90] are 50 to 70% and > 1000 nM.
With `Cn1c(=O)n(C2CCC(=O)NC2=O)c2cccc(CCCCOc3ccc(CN4CCN(c5cc(-c6ccccc6O)nnc5N)CC4)cc3)c21` (stereo not drawn) [I-91], the Dmax was < 50% and the DC50 is > 1000 nM.
Turning to `Cn1c(=O)n(C2CCC(=O)NC2=O)c2cccc(CCCCCOc3ccc(CN4CCN(c5cc(-c6ccccc6O)nnc5N)CC4)cc3)c21` (stereo not drawn) [I-92], the Dmax lay within 50 to 70% and the DC50 lay within 100 to 500 nM.
